Experimental data published in patent US20250333410A1, “COMPOUND FOR INHIBITING OR DEGRADING BCL6 AND USE THEREOF IN PHARMACEUTICS” (XIZANG HAISCO PHARMACEUTICAL CO., LTD., priority 2022, published 2025).

How the values were obtained:
[1] = Pharmacokinetic test in mice; assay type: in vivo, ICR mice; conditions: i.g. 5 mg/kg; for AUC(0-t): male, ICR, mouse, po, mice plasma; for F: mice
Experimental: 3. Pharmacokinetic Test in Mice
1.1 Experimental animal: male ICR mice, 25-30 g, 6 mice/compound, purchased from Chengdu Ddossy Experimental Animals Co., Ltd.
1.2 Experimental design: on the day of the experiment, the ICR mice were randomly grouped according to their body weights. The animals were fasted but with water available for 12 to 14 h one day before the administration, and were fed 4 h after the administration.

[2] = target: T1, Bcl6 (Homo sapiens (Human), UniProt P41182); assay: Bcl-6 protein degradation experiment in OCI-LY1 cells; assay type: cell-based; conditions: 24 hours
Experimental: 4. Bcl-6 Protein Degradation Experiment in OCI-LY1 Cells
(§1) OCI-LY1 cells purchased from DSMZ were placed in an IMDM complete medium (containing 10% fetal bovine serum, 100 U/mL penicillin, 100 μg/mL streptomycin and 50 µM mercaptoethanol) and cultured at 37° C. and 5% CO2. The cells in the logarithmic growth phase were collected, and the cell suspension was adjusted to an appropriate density with the culture medium and added to a 6-well cell culture plate at a volume of 1 mL/well. The compounds to be tested were prepared to 2-fold the final concentration, 1 mL of the compounds at different concentrations were added to administration wells, a medium containing 0.2% DMSO was added to control wells, and the plate was incubated at 37° C. for 24 hours. The cells were collected into a 1.5 mL centrifuge tube, 25 L of RIPA lysis buffer (containing 1× protease inhibitor cocktail) was added, and the cells were lysed on ice for 15 minutes and centrifuged at 12000 rpm/min at 4° C. for 10 minutes. The supernatant was collected and the protein content was determined using the BCA method. The protein sample to be tested was diluted to 0.8 mg/mL, Bcl6 was detected using a fully automated protein expression quantitative analyzer (ProteinSimple), and the internal reference protein was R-actin (both antibodies were from CST). The software (Compass for SW) of the fully automated protein expression quantitative analyzer was used to process the raw data and calculate the peak area and the Bcl6 expression rate relative to the control group. DC50 values were calculated using a four-parameter non-linear fitting model in Graphpad 8.3.0 software.

[3] = target: T1, Bcl6; assay: Bcl-6 protein degradation experiment in Farage cells; assay type: cell-based; conditions: 24 hours
Experimental: 2. Bcl-6 Protein Degradation Experiment in Farage Cells
as §1, with “Farage cells” for “OCI-LY1 cells”, “from ATCC” for “from DSMZ”, “an RPMI-1640” for “an IMDM”, “U/mL penicillin and” for “U/mL penicillin,”, “μg/mL streptomycin)” for “μg/mL streptomycin and 50 µM mercaptoethanol)”, “25 μL” for “25 L”

[4] = target: hERG potassium ion channel (Homo sapiens (Human), UniProt Q12809); assay: Test for hERG potassium ion channel (manual patch-clamp, CHO cells); assay type: cell-based; conditions: CHO cells stably expressing hERG, whole cell patch-clamp; read-out: IC50 of inhibitory effects on hERG potassium channel current
Chain of hERG potassium ion channel (Q12809 whole entry): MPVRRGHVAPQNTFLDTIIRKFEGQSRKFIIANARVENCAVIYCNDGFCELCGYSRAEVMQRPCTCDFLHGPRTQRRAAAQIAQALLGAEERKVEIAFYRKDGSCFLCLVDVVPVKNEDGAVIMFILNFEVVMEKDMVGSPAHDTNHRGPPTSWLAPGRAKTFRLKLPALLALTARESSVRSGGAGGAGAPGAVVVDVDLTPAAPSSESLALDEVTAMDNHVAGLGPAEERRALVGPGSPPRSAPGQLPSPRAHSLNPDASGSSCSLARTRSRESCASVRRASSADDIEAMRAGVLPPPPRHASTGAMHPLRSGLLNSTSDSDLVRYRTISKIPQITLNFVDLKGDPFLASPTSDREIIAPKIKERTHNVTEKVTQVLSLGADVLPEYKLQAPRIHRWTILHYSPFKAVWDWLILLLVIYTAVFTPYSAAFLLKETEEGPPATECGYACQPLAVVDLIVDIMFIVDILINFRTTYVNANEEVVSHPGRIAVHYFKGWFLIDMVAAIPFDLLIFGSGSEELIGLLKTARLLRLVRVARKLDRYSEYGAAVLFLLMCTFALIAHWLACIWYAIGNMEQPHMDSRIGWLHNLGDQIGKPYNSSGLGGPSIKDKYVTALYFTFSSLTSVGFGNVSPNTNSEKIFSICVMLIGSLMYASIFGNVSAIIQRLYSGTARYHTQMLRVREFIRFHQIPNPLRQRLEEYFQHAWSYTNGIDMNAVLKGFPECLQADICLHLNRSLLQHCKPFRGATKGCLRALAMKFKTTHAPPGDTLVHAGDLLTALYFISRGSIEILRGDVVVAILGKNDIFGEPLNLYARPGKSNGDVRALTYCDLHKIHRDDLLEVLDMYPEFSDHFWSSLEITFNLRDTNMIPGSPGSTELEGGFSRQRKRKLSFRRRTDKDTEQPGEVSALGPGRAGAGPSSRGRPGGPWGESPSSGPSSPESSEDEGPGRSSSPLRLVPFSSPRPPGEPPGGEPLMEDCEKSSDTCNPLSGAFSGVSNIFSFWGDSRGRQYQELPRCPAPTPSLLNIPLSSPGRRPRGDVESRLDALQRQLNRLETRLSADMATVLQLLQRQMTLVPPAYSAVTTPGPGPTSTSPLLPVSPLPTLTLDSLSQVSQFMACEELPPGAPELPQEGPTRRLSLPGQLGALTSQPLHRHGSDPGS
Excerpt: 8. Test for hERG Potassium Ion Channel
Experimental platform: electrophysiological manual patch-clamp system
Cell line: Chinese hamster ovary (CHO) cell lines stably expressing hERG potassium ion channel
Experimental method: in CHO (Chinese Hamster Ovary) cells stably expressing hERG potassium channel, the whole cell patch-clamp technique was used to record hERG potassium channel current at room temperature. The glass microelectrode was made of a glass electrode blank (BF150-86-10, Sutter) by a puller. The tip resistance after filling the liquid in the electrode was about 2-5 MΩ. The glass microelectrode can be connected to the patch-clamp amplifier by inserting the glass microelectrode into an amplifier probe. The clamping voltage and data recording were controlled and recorded by the pClamp 10 software through a computer. The sampling frequency was 10 kHz, and the filtering frequency was 2 kHz. After the whole cell records were obtained, the cells were clamped at −80 mV, and the step voltage that induced the hERG potassium current (IhERG) was depolarized from −80 mV to +20 mV for 2 s, then repolarized to −50 mV, and returned to −80 mV after 1 s. This voltage stimulation was given every 10 s, and the administration process was started after the hERG potassium current was confirmed to be stable (at least 1 minute). The compound was administered for at least 1 minute at each test concentration, and at least 2 cells (n≥2) were tested at each concentration.
Data processing: data analysis processing was carried out by using pClamp 10, GraphPad Prism 5 and Excel software. The inhibition degree of hERG potassium current (peak value of hERG tail current induced at −50 mV) at different compound concentrations was calculated by the following formula: […]
where Inhibition % represents the percentage of inhibition of hERG potassium current by the compound, and I and Io represent the amplitude of hERG potassium current after and before the administration, respectively.
Compound IC50 was calculated using GraphPad Prism 5 software by fitting according to the following equation: […]
Among the equation, X represents the Log value of the tested concentration of the test sample, Y represents the inhibition percentage at the corresponding concentration, and Bottom and Top represent the minimum and maximum inhibition percentage, respectively.

In the case of `CC(=O)COc1cc2cc(Nc3nc(N4CCC(N5CCN(c6ccc(C7CCC(=O)NC7=O)cc6)CC5)CC4)ncc3Cl)ccc2n(C)c1=O` (stereo not drawn) [Compound 15], the AUC(0-t) [1] is reported as > 1000 ng·h/mL and the DC50 [2] is reported as < 100 nM.

In the case of `CNC(=O)COc1cc2cc(Nc3nc(N4CCC(N5CCN(c6ccc(C7CCC(=O)NC7=O)cc6)CC5)CC4)ncc3Cl)ccc2n(C)c1=O` (stereo not drawn) [Compound 16], the DC50 [2] is reported as < 100 nM.

In the case of `CC(=O)COc1cc2cc(Nc3nc(N4CCC(C5CCN(c6ccc(C7CCC(=O)NC7=O)cc6)CC5)CC4)ncc3Cl)ccc2n(C)c1=O` (stereo not drawn) [Compound 18], the DC50 [2] is reported as < 100 nM.

With `CNC(=O)COc1cc2cc(Nc3nc(N4CCN(CC5CCN(c6cccc7c6C(=O)N(C6CCC(=O)NC6=O)C7=O)CC5)CC4)ncc3Cl)ccc2n(C)c1=O` (stereo not drawn) [Control compound 1, reference compound] the AUC(0-t) [1] was < 100 ng·h/mL and the F [1] was <5%.

With `CC(=O)COc1cc2cc(Nc3nc(N4CCC(CN5CCN(c6ccc(C7CCC(=O)NC7=O)cc6)CC5)CC4)ncc3Cl)ccc2n(C)c1=O` (stereo not drawn) [Trifluoroacetate of compound 13] the AUC(0-t) [1] was > 1000 ng·h/mL and the DC50 [3] was < 10 nM.

With `CNC(=O)COc1cc2cc(Nc3nc(N4CCC(CN5CCN(c6ccc(C7CCC(=O)NC7=O)cc6)CC5)CC4)ncc3Cl)ccc2n(C)c1=O` (stereo not drawn) [Trifluoroacetate of compound 14] the AUC(0-t) [1] was > 1000 ng·h/mL and the DC50 [3] was < 10 nM.

In the case of `CNC(=O)COc1cc2cc(Nc3nc(N4CCN(CC5CCN(c6ccc(C7CCC(=O)NC7=O)c(F)c6)CC5)CC4)ncc3Cl)ccc2n(C)c1=O` (stereo not drawn) [Trifluoroacetate of compound 24], the AUC(0-t) [1] is reported as > 1000 ng·h/mL, the F [1] is reported as >50% and the DC50 [2] is reported as < 100 nM. The DC50 ([2]; listed as trifluoroacetate of compound 24) was < 5 nM and the DC50 [3] was < 10 nM.

In the case of `CNC(=O)COc1cc2cc(Nc3nc(N4CCC(CN5CCN6c7cc(F)c(C8CCC(=O)NC8=O)cc7CC[C@@H]6C5)CC4)ncc3Cl)ccc2n(C(C)C)c1=O` (stereo partly drawn) [Trifluoroacetate of compound 56], the AUC(0-t) [1] is reported as > 1000 ng·h/mL and the DC50 [3] is reported as < 10 nM.

For `CNC(=O)COc1cc2cc(Nc3nc(N4CCC(CN5CCN6c7cc(F)c(C8CCC(=O)NC8=O)cc7CC[C@H]6C5)CC4)ncc3Cl)ccc2n(C(C)C)c1=O` (stereo partly drawn) [Trifluoroacetate of compound 57], the AUC(0-t) [1] was > 1000 ng·h/mL, the DC50 [2] was < 100 nM and the DC50 ([2]; listed as trifluoroacetate of compound 57) was < 5 nM. The DC50 [3] was < 10 nM.

For `CNC(=O)COc1cc2cc(Nc3nc(N4CCC(O[C@H]5C[C@H](N6CCN7c8cc(F)c(C9CCC(=O)NC9=O)cc8CC[C@H]7C6)C5)CC4)ncc3Cl)ccc2n(C(C)C)c1=O` (stereo partly drawn) [Trifluoroacetate of compound 58], the AUC(0-t) [1] was > 1000 ng·h/mL, the F [1] was >50% and the DC50 [2] was < 100 nM. For the same compound, the DC50 ([2]; listed as trifluoroacetate of compound 58) was < 5 nM and the DC50 [3] was < 10 nM.

With `[2H]C([2H])([2H])n1c(=O)c(OCC(=O)NC)cc2cc(Nc3nc(N4CCC(CN5CCN6c7cc(F)c(C8CCC(=O)NC8=O)cc7CC[C@@H]6C5)CC4)ncc3Cl)ccc21` (stereo partly drawn) [Trifluoroacetate of compound 62] the AUC(0-t) [1] was > 1000 ng·h/mL, the F [1] was >50% and the DC50 [3] was < 10 nM.

In the case of `[2H]C([2H])([2H])NC(=O)COc1cc2cc(Nc3nc(N4CCC(CN5CCN6c7cc(F)c(C8CCC(=O)NC8=O)cc7CC[C@@H]6C5)CC4)ncc3Cl)ccc2n(C([2H])([2H])[2H])c1=O` (stereo partly drawn) [Trifluoroacetate of compound 63], the AUC(0-t) [1] is reported as > 1000 ng·h/mL and the DC50 [3] is reported as < 10 nM.

For `[2H]C([2H])([2H])NC(=O)COc1cc2cc(Nc3nc(N4CCC(CN5CCN6c7cc(F)c(C8CCC(=O)NC8=O)cc7CC[C@@H]6C5)CC4)ncc3Cl)ccc2n(C)c1=O` (stereo partly drawn) [Trifluoroacetate of compound 64], the AUC(0-t) [1] was > 1000 ng·h/mL and the DC50 [3] was < 10 nM.

With `[2H]C([2H])([2H])n1c(=O)c(OCC(=O)NC)cc2cc(Nc3nc(N4CCC(CN5CCN6c7cc(F)c(C8CCC(=O)NC8=O)cc7CC[C@H]6C5)CC4)ncc3Cl)ccc21` (stereo partly drawn) [Trifluoroacetate of compound 65] the AUC(0-t) [1] was > 1000 ng·h/mL and the DC50 [3] was < 10 nM.

With `[2H]C([2H])([2H])NC(=O)COc1cc2cc(Nc3nc(N4CCC(CN5CCN6c7cc(F)c(C8CCC(=O)NC8=O)cc7CC[C@H]6C5)CC4)ncc3Cl)ccc2n(C([2H])([2H])[2H])c1=O` (stereo partly drawn) [Trifluoroacetate of compound 66] the AUC(0-t) [1] was > 1000 ng·h/mL, the F [1] was >50% and the DC50 [3] was < 10 nM.

With `[2H]C([2H])([2H])NC(=O)COc1cc2cc(Nc3nc(N4CCC(CN5CCN6c7cc(F)c(C8CCC(=O)NC8=O)cc7CC[C@H]6C5)CC4)ncc3Cl)ccc2n(C)c1=O` (stereo partly drawn) [Trifluoroacetate of compound 67] the AUC(0-t) [1] was > 1000 ng·h/mL, the F [1] was >50% and the DC50 [3] was < 10 nM. For the same compound, the IC50 [4] was > 40000 nM.

With `CNC(=O)COc1cc2cc(Nc3nc(N4CCC(CN5CCn6c(nc7cc(F)c(C8CCC(=O)NC8=O)cc76)C5)CC4)ncc3Cl)ccc2n(C(C)C)c1=O` (stereo not drawn) [Trifluoroacetate of compound 75] the DC50 [3] was < 10 nM and the IC50 [4] was > 40000 nM.

In the case of `CNC(=O)COc1cc2cc(Nc3nc(N4CCC(CN5CCn6c(cc7cc(C8CCC(=O)NC8=O)c(F)cc76)C5)CC4)ncc3Cl)ccc2n(C(C)C)c1=O` (stereo not drawn) [Trifluoroacetate of compound 77], the DC50 [3] is reported as < 10 nM and the IC50 [4] is reported as > 40000 nM.

For `CNC(=O)COc1cc2cc(Nc3nc(N4CCC(F)(CN5CCN6c7cc(F)c(C8CCC(=O)NC8=O)cc7CC[C@@H]6C5)CC4)ncc3Cl)ccc2n(C(C)C)c1=O` (stereo partly drawn) [Trifluoroacetate of compound 98], the DC50 [3] was < 10 nM.

In the case of `CNC(=O)COc1cc2cc(Nc3nc(N4CC[C@H](O[C@H]5C[C@H](N6CCN7c8cc(F)c(C9CCC(=O)NC9=O)cc8CC[C@H]7C6)C5)[C@@H](F)C4)ncc3Cl)ccc2n(C(C)C)c1=O` (stereo partly drawn) [Trifluoroacetate of compound 109], the DC50 [3] is reported as < 10 nM.
